Reference: US12568972B2, “Pyridazinol compounds and derivatives, preparation methods, herbicidal compositions and applications thereof” (Qingdao Kingagroot Chemical Compound Co., Ltd., priority 2018, dated 2026)

Legend:
Assay in all cases: Post-emergence test, weed control effect
Type in all cases: in vivo
Details in all cases: after 3 weeks
[1] = test system: Amaranthus retroflexus
Outline: (§1)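 Greenhouse pots, soil-sown, 0.5-2 cm cover; foliar spray at 2-3 leaf stage (2-3 wk post-sowing); cpd in acetone + Tween-80, water-diluted, + 80% veg. oil methyl ester synergist 1500 g/ha; 3 wk culture; fresh-wt inhibition graded 0-10.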

[2] = test system: Chenopodiaceae
Outline: as §1

[3] = test system: Rorippa indica
Outline: as §1

[4] = test system: Veronica polita
Outline: as §1

CCOc1ccc(F)c(-c2nnc(C(F)(F)F)cc2O)c1F [Compound 81]
10: weed control effect (activity level), Amaranthus retroflexus ([1]; dose 1000 g/ha) | weed control effect (activity level), Chenopodiaceae ([2]; dose 1000 g/ha) | weed control effect (activity level), Rorippa indica ([3]; dose 1000 g/ha) | weed control effect (activity level), Veronica polita ([4]; dose 1000 g/ha)

Oc1cc(C(F)(F)F)nnc1-c1ccc2ccccc2c1 [Compound 370]
10: weed control effect (activity level), Amaranthus retroflexus ([1]; dose 2000 g/ha) | weed control effect (activity level), Chenopodiaceae ([2]; dose 2000 g/ha) | weed control effect (activity level), Rorippa indica ([3]; dose 2000 g/ha) | weed control effect (activity level), Veronica polita ([4]; dose 2000 g/ha)

O=C(Oc1cc(C(F)(F)F)nnc1-c1ccc(F)cc1)c1cccc2ccsc12 [Compound 1-119]
10: weed control effect, Amaranthus retroflexus (activity level) ([1]; Dose 3000 g/ha) | weed control effect, Chenopodiaceae (activity level) ([2]; Dose 3000 g/ha) | weed control effect, Rorippa indica (activity level) ([3]; Dose 3000 g/ha) | weed control effect, Veronica polita (activity level) ([4]; Dose 3000 g/ha)

CN(C)c1cc(-c2nnc(C(F)(F)F)cc2O)n(C)n1 [Compound 787]
10: weed control effect (activity level), Amaranthus retroflexus ([1]; Dose 3000 g/ha) | weed control effect (activity level), Chenopodiaceae ([2]; Dose 3000 g/ha) | weed control effect (activity level), Rorippa indica ([3]; Dose 3000 g/ha) | weed control effect (activity level), Veronica polita ([4]; Dose 3000 g/ha)

NC(=O)c1ccc(S(=O)(=O)Oc2cc(C(F)(F)F)nnc2-c2ccc(C(F)(F)F)cc2)cc1 [Compound 1-141]
10: weed control effect, Amaranthus retroflexus (activity level) ([1]; Dose 3000 g/ha) | weed control effect, Chenopodiaceae (activity level) ([2]; Dose 3000 g/ha) | weed control effect, Rorippa indica (activity level) ([3]; Dose 3000 g/ha) | weed control effect, Veronica polita (activity level) ([4]; Dose 3000 g/ha)

COc1ccc(OCC(=O)Oc2cc(C(F)(F)F)nnc2-c2ccc(F)cc2)cc1 [Compound 1-101]
10: weed control effect, Amaranthus retroflexus (activity level) ([1]; Dose 3000 g/ha) | weed control effect, Chenopodiaceae (activity level) ([2]; Dose 3000 g/ha) | weed control effect, Rorippa indica (activity level) ([3]; Dose 3000 g/ha) | weed control effect, Veronica polita (activity level) ([4]; Dose 3000 g/ha)

Oc1cc(C(F)(F)F)nnc1-c1cccc(C(F)(F)F)c1F [Compound 761]
10: weed control effect (activity level), Amaranthus retroflexus ([1]; Dose 3000 g/ha) | weed control effect (activity level), Chenopodiaceae ([2]; Dose 3000 g/ha) | weed control effect (activity level), Rorippa indica ([3]; Dose 3000 g/ha) | weed control effect (activity level), Veronica polita ([4]; Dose 3000 g/ha)

CCC/C(C)=N\Oc1cc(C(F)(F)F)nnc1-c1ccc(OC)cc1 [Compound 1-171]
10: weed control effect, Amaranthus retroflexus (activity level) ([1]; Dose 3000 g/ha) | weed control effect, Chenopodiaceae (activity level) ([2]; Dose 3000 g/ha) | weed control effect, Rorippa indica (activity level) ([3]; Dose 3000 g/ha) | weed control effect, Veronica polita (activity level) ([4]; Dose 3000 g/ha)

O=C(Oc1cc(C(F)(F)F)nnc1-c1ccc(F)cc1)c1ccc(Cl)cc1Cl [Compound 1-91]
10: weed control effect, Amaranthus retroflexus (activity level) ([1]; Dose 3000 g/ha) | weed control effect, Chenopodiaceae (activity level) ([2]; Dose 3000 g/ha) | weed control effect, Rorippa indica (activity level) ([3]; Dose 3000 g/ha) | weed control effect, Veronica polita (activity level) ([4]; Dose 3000 g/ha)

Oc1cc(C(F)(F)F)nnc1-c1cnc(F)c(F)c1 [Compound 988]
10: weed control effect (activity level), Amaranthus retroflexus ([1]; Dose 3000 g/ha) | weed control effect (activity level), Chenopodiaceae ([2]; Dose 3000 g/ha) | weed control effect (activity level), Rorippa indica ([3]; Dose 3000 g/ha) | weed control effect (activity level), Veronica polita ([4]; Dose 3000 g/ha)

O=S(=O)(Oc1cc(C(F)(F)F)nnc1-c1ccc(F)c(F)c1)c1ccc(C(F)(F)F)cc1 [Compound 1-129]
10: weed control effect, Amaranthus retroflexus (activity level) ([1]; Dose 3000 g/ha) | weed control effect, Chenopodiaceae (activity level) ([2]; Dose 3000 g/ha) | weed control effect, Rorippa indica (activity level) ([3]; Dose 3000 g/ha) | weed control effect, Veronica polita (activity level) ([4]; Dose 3000 g/ha)

O=S(=O)(Oc1cc(C(F)(F)F)nnc1-c1ccc(C(F)(F)F)cc1)C1CC1 [Compound 1-122]
10: weed control effect, Amaranthus retroflexus (activity level) ([1]; Dose 3000 g/ha) | weed control effect, Chenopodiaceae (activity level) ([2]; Dose 3000 g/ha) | weed control effect, Rorippa indica (activity level) ([3]; Dose 3000 g/ha) | weed control effect, Veronica polita (activity level) ([4]; Dose 3000 g/ha)

O=C(CCc1ccccc1)Oc1cc(C(F)(F)F)nnc1-c1ccc(F)c(F)c1 [Compound 1-98]
10: weed control effect, Amaranthus retroflexus (activity level) ([1]; Dose 3000 g/ha) | weed control effect, Chenopodiaceae (activity level) ([2]; Dose 3000 g/ha) | weed control effect, Rorippa indica (activity level) ([3]; Dose 3000 g/ha) | weed control effect, Veronica polita (activity level) ([4]; Dose 3000 g/ha)

Cn1nc(Br)cc1-c1nnc(C(F)(F)F)cc1O [Compound 777]
10: weed control effect (activity level), Amaranthus retroflexus ([1]; Dose 3000 g/ha) | weed control effect (activity level), Chenopodiaceae ([2]; Dose 3000 g/ha) | weed control effect (activity level), Rorippa indica ([3]; Dose 3000 g/ha) | weed control effect (activity level), Veronica polita ([4]; Dose 3000 g/ha)

O=Cc1c(F)cccc1-c1nnc(C(F)(F)F)cc1O [Compound 63]
10: weed control effect (activity level), Amaranthus retroflexus ([1]; dose 1000 g/ha) | weed control effect (activity level), Chenopodiaceae ([2]; dose 1000 g/ha) | weed control effect (activity level), Rorippa indica ([3]; dose 1000 g/ha) | weed control effect (activity level), Veronica polita ([4]; dose 1000 g/ha)

O=C(Oc1cc(C(F)(F)F)nnc1-c1ccccc1)SC1CCCCC1 [Compound 1-58]
10: weed control effect, Amaranthus retroflexus (activity level) ([1]; Dose 3000 g/ha) | weed control effect, Chenopodiaceae (activity level) ([2]; Dose 3000 g/ha) | weed control effect, Rorippa indica (activity level) ([3]; Dose 3000 g/ha) | weed control effect, Veronica polita (activity level) ([4]; Dose 3000 g/ha)

Oc1cc(C(F)(F)F)nnc1-c1cn2ncccc2n1 [Compound 570]
10: weed control effect (activity level), Amaranthus retroflexus ([1]; Dose 3000 g/ha) | weed control effect (activity level), Chenopodiaceae ([2]; Dose 3000 g/ha) | weed control effect (activity level), Rorippa indica ([3]; Dose 3000 g/ha) | weed control effect (activity level), Veronica polita ([4]; Dose 3000 g/ha)

Oc1cc(C(F)(F)F)nnc1-c1cncc(I)c1 [Compound 971]
10: weed control effect (activity level), Amaranthus retroflexus ([1]; Dose 3000 g/ha) | weed control effect (activity level), Chenopodiaceae ([2]; Dose 3000 g/ha) | weed control effect (activity level), Rorippa indica ([3]; Dose 3000 g/ha) | weed control effect (activity level), Veronica polita ([4]; Dose 3000 g/ha)
